From patent US10829520B2, “Beta-hairpin peptidomimetics” (POLYPHOR AG, priority 2015, dated 2020)
Where a SMILES comes first, the peptide text is derived from it. Bridges are numbered along the chain shown (N, C = ends). [ ]: non-standard residue; d: D form. The star is where a group is joined. NαAmidinoTrp = N=C(N)N[C@@H](Cc1c[nH]c2ccccc12)C(=O)*; X2 = CN(C)C(=N[C@@H](Cc1c[nH]c2ccccc12)C(=O)*)N(C)C; Ala(cPent) = N[C@@H](CC1CCCC1)C(=O)O; dHyp = O=C(O)[C@H]1C[C@H](O)CN1; Dab = NCC[C@H](N)C(=O)O

Columns and labels:
Type in all cases: cell-based
[1] = system: Acinetobacter baumannii 872842; conditions: 872842
[2] = system: Acinetobacter baumannii DSM 30008; conditions: DSM 30008
Outline: (§1)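 Using the CLSI reference method, each strain at approx. 10^6 CFU/mL was exposed to serially diluted peptide in MH-II broth with 0.002% P-80. After 18-20 h at 35° C, the lowest concentration showing no visible growth gave the MIC.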

[3] = system: Escherichia coli 926415; conditions: 926415
[4] = system: Escherichia coli ATCC 25922; conditions: ATCC 25922
Outline: as §1

[5] = system: Klebsiella pneumoniae 968733; conditions: 968733
[6] = system: Klebsiella pneumoniae SSI #3010; conditions: SSI #3010
Outline: as §1

[7] = system: Pseudomonas aeruginosa ATCC 27853; conditions: ATCC 27853
Outline: as §1

[8] = system: human red blood cells (hRBC); assay: Hemolysis of human red blood cells; conditions: red cells of human, 1 h, 100 μg/mL
Outline: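 Washed fresh human erythrocytes (20% v/v, ~0.9×10^9 cells/mL final) were incubated with peptides at 100 μg/mL for 1 h at 37 °C with shaking. Supernatant OD540 measured; hemolysis expressed as % of 2.5% Triton X-100 lysis, with PBS/0.001% acetic acid as 0%.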

Structure (SMILES) | Acinetobacter baumannii 872842 MIC [1] | Acinetobacter baumannii DSM 30008 MIC [2] | Escherichia coli 926415 MIC [3] | Escherichia coli ATCC 25922 MIC [4] | Klebsiella pneumoniae 968733 MIC [5] | Klebsiella pneumoniae SSI #3010 MIC [6] | Pseudomonas aeruginosa ATCC 27853 MIC [7] | Hemolysis at 100 μg/mL [8]
CC(C)C[C@@H]1NC(=O)[C@@H](CC(C)C)NC(=O)[C@H](CCN)NC(=O)[C@@H](NC(=O)[C@H](CCN)NC(=O)[C@@H](NC(=O)[C@H](CCN)NC(=O)[C@H](CCN)NC(=O)[C@@H]2CSSC[C@H](NC(=O)[C@@H](N)Cc3c[nH]c4ccccc34)C(=O)N[C@@H](C(C)C)C(=O)N[C@@H](C)C(=O)N[C@@H](CO)C(=O)NCC(=O)N3CCC[C@H]3C(=O)N[C@@H](CC(C)C)C(=O)N[C@@H](CO)C(=O)N[C@@H](Cc3ccc(O)cc3)C(=O)N2)[C@@H](C)O)CCNC(=O)[C@H]([C@@H](C)O)NC(=O)[C@H](CCN)NC(=O)[C@H](CCN)NC1=O [Ex. 128] (H-WCVASGPLSYC[Dab][Dab]T[Dab][Dab][Dab][dL]L[Dab][Dab]T; disulfide 2-11; lactam 16-C) | 0.25 µg/mL | 0.125 µg/mL | 0.5 µg/mL | 0.125 µg/mL | 4 µg/mL | 0.125 µg/mL | 0.5 µg/mL | 1%
CC(C)C[C@@H]1NC(=O)[C@H](C)NC(=O)[C@H]2C[C@H](O)CN2C(=O)[C@H](CO)NC(=O)[C@H](C)NC(=O)[C@H](C(C)C)NC(=O)[C@@H](NC(=O)[C@@H](N)Cc2c[nH]c3ccccc23)CSSC[C@@H](C(=O)N[C@@H](CCN)C(=O)N[C@@H](CCN)C(=O)N[C@H](C(=O)N[C@@H](CCN)C(=O)N[C@H]2CCNC(=O)[C@H]([C@@H](C)O)NC(=O)[C@H](CCN)NC(=O)[C@H](CCN)NC(=O)[C@H](CC(C)C)NC(=O)[C@@H](CC(C)C)NC(=O)[C@H](CCN)NC2=O)[C@@H](C)O)NC(=O)[C@H](Cc2ccc(O)cc2)NC(=O)[C@H](CO)NC1=O [Ex. 129] (H-WCVAS[dHyp]ALSYC[Dab][Dab]T[Dab][Dab][Dab][dL]L[Dab][Dab]T; disulfide 2-11; lactam 16-C) | 0.0625 µg/mL | 0.125 µg/mL | 0.25 µg/mL | 0.0625 µg/mL | 2 µg/mL | 0.125 µg/mL | 0.125 µg/mL | <1%
CC(C)C[C@@H]1NC(=O)[C@@H](CC(C)C)NC(=O)[C@H](CCN)NC(=O)[C@@H](NC(=O)[C@H](CCN)NC(=O)[C@@H](NC(=O)[C@H](CCN)NC(=O)CNC(=O)[C@@H]2CSSC[C@H](NC(=O)[C@@H](N)Cc3c[nH]c4ccccc34)C(=O)N[C@@H](C(C)C)C(=O)N[C@@H](C)C(=O)N[C@@H](CO)C(=O)N[C@H](CO)C(=O)N3CCC[C@H]3C(=O)N[C@@H](CC(C)C)C(=O)N[C@@H](CO)C(=O)N[C@@H](Cc3ccc(O)cc3)C(=O)N2)[C@@H](C)O)CCNC(=O)[C@H]([C@@H](C)O)NC(=O)[C@H](CCN)NC(=O)[C@H](CCN)NC1=O [Ex. 130] (H-WCVAS[dS]PLSYCG[Dab]T[Dab][Dab][Dab][dL]L[Dab][Dab]T; disulfide 2-11; lactam 16-C) | 0.0625 µg/mL | 0.0625 µg/mL | 0.25 µg/mL | 0.0625 µg/mL | 0.125 µg/mL | 0.0625 µg/mL | 0.25 µg/mL | <1%
CC(C)C[C@@H]1NC(=O)[C@@H](CC(C)C)NC(=O)[C@H](CCN)NC(=O)[C@@H](NC(=O)[C@H](CCN)NC(=O)[C@@H](NC(=O)[C@H](CCN)NC(=O)CNC(=O)[C@@H]2CSSC[C@H](NC(=O)[C@@H](N)Cc3c[nH]c4ccccc34)C(=O)N[C@@H](C(C)C)C(=O)N[C@@H](C)C(=O)N[C@@H](CO)C(=O)N3CCC[C@@H]3C(=O)N3CCC[C@H]3C(=O)N[C@@H](CC(C)C)C(=O)N[C@@H](CO)C(=O)N[C@@H](Cc3ccc(O)cc3)C(=O)N2)[C@@H](C)O)CCNC(=O)[C@H]([C@@H](C)O)NC(=O)[C@H](CCN)NC(=O)[C@H](CCN)NC1=O [Ex. 131] (H-WCVAS[dP]PLSYCG[Dab]T[Dab][Dab][Dab][dL]L[Dab][Dab]T; disulfide 2-11; lactam 16-C) | 0.125 µg/mL | 0.125 µg/mL | 0.25 µg/mL | 0.0625 µg/mL | 0.25 µg/mL | 0.125 µg/mL | 0.5 µg/mL | <1%
CC(C)C[C@@H]1NC(=O)[C@@H](Cc2ccccc2)NC(=O)[C@H](CCN)NC(=O)[C@@H](NC(=O)[C@H](CCN)NC(=O)[C@@H](NC(=O)[C@H](CCN)NC(=O)CNC(=O)[C@@H]2CSSC[C@H](NC(=O)[C@@H](N)Cc3c[nH]c4ccccc34)C(=O)N[C@@H](C(C)C)C(=O)N[C@@H](C)C(=O)N[C@@H](CO)C(=O)N3CCC[C@@H]3C(=O)N3CCC[C@H]3C(=O)N[C@@H](CC3CCCC3)C(=O)N[C@@H](CO)C(=O)N[C@@H](Cc3ccc(O)cc3)C(=O)N2)[C@@H](C)O)CCNC(=O)[C@H]([C@@H](C)O)NC(=O)[C@H](CCN)NC(=O)[C@H](CCN)NC1=O [Ex. 132] (H-WCVAS[dP]P[Ala(cPent)]SYCG[Dab]T[Dab][Dab][Dab][dF]L[Dab][Dab]T; disulfide 2-11; lactam 16-C) | 0.0625 µg/mL | 0.0625 µg/mL | 0.1255 µg/mL | 0.0625 µg/mL | 0.125 µg/mL | 0.125 µg/mL | 0.25 µg/mL | <1%
CC(C)C[C@@H]1NC(=O)[C@@H](CC(C)C)NC(=O)[C@H](CCN)NC(=O)[C@@H](NC(=O)[C@H](CCN)NC(=O)[C@@H](NC(=O)[C@H](CCN)NC(=O)CNC(=O)[C@@H]2CSSC[C@H](NC(=O)[C@H](Cc3c[nH]c4ccccc34)N=C(N(C)C)N(C)C)C(=O)N[C@@H](C(C)C)C(=O)N[C@@H](C)C(=O)N[C@@H](CO)C(=O)N3CCC[C@@H]3C(=O)N3CCC[C@H]3C(=O)N[C@@H](CC(C)C)C(=O)N[C@@H](CO)C(=O)N[C@@H](Cc3ccc(O)cc3)C(=O)N2)[C@@H](C)O)CCNC(=O)[C@H]([C@@H](C)O)NC(=O)[C@H](CCN)NC(=O)[C@H](CCN)NC1=O [Ex. 133] (X2-CVAS[dP]PLSYCG[Dab]T[Dab][Dab][Dab][dL]L[Dab][Dab]T; disulfide 1-10; lactam 15-C) | 4 µg/mL | 1 µg/mL | 4 µg/mL | 0.25 µg/mL | 8 µg/mL | 1 µg/mL | 1 µg/mL | <1%
CC(C)C[C@@H]1NC(=O)[C@@H](CC(C)C)NC(=O)[C@H](CCN)NC(=O)[C@@H](NC(=O)[C@H](CCN)NC(=O)[C@@H](NC(=O)[C@H](CCN)NC(=O)[C@@H](C)NC(=O)[C@@H]2CSSC[C@H](NC(=O)[C@H](Cc3c[nH]c4ccccc34)NC(=N)N)C(=O)N[C@@H](C(C)C)C(=O)N[C@@H](C)C(=O)N[C@@H](CO)C(=O)N3CCC[C@@H]3C(=O)N3CCC[C@H]3C(=O)N[C@@H](CC(C)C)C(=O)N[C@@H](CO)C(=O)N[C@@H](Cc3ccc(O)cc3)C(=O)N2)[C@@H](C)O)CCNC(=O)[C@H]([C@@H](C)O)NC(=O)[C@H](CCN)NC(=O)[C@H](CCN)NC1=O [Ex. 135] (NαAmidinoTrp-CVAS[dP]PLSYC[dA][Dab]T[Dab][Dab][Dab][dL]L[Dab][Dab]T; disulfide 1-10; lactam 15-C) | 0.5 µg/mL | 0.25 µg/mL | 1 µg/mL | 0.125 µg/mL | 8 µg/mL | 0.5 µg/mL | 0.5 µg/mL | 1%
